Measured values reported in patent publication US11912723B2, “KRAS modulators and uses thereof” (Quanta Therapeutics, Inc., priority 2022, dated 2024).
pIC50: −log10 of the molar value.

What follows are compounds tested against T1, KRAS G12D/RAF1 (Homo sapiens, UniProt P01116, G12D) (assay: Protein-protein interaction (PPI) HTRF assay KRAS G12D/RAF1). Conditions: KRAS G12D/RAF1, GppNHp-loaded KRAS; 30 minutes pre-incubation.
T1 construct: KRAS (1-169) proteins were expressed in E. coli at 18° C; His6-MBP (N, cleaved yes); made in house; host or cells: E. coli
T1 sequence (P01116 1-169 isoform P01116-2 G12D): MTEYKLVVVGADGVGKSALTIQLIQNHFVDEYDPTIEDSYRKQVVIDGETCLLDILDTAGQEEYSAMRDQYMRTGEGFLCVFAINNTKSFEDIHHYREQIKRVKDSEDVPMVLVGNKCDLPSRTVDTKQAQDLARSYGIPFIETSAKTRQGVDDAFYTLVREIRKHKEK
Format: binding
In short: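 IC50 values come from the 665/615 HTRF ratio, scaled between no-compound (0% inhibition) and untagged RAF1 (100%). GppNHp-exchanged, biotinylated RAS (1-169) solution at 16 nM met compound for 30 min at room temperature. Then 16 nM His-tagged RAF1 (52-131) donor solution was added and incubated 1 h.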
Compound `OC1CCCN(c2nc(OC[C@@]34CCCN3C[C@H](F)C4)nc3c2COC2(CCc4c(Cl)cccc42)C3)CC1` (mixture of isomers) [Compound 6, 1-[4′-chloro-2-[[rac-(2R,8S)-2-fluoro-1,2,3,5,6,7-hexahydropyrrolizin-8-yl]methoxy]spiro[5,8-dihydropyrano[4,3-d]pyrimidine-7,1′-indane]-4-yl]azepan-4-ol] has a pIC50 of less than 4.00. With `CN(C)C(=O)c1cc2n(n1)CCCN(c1nc(OC[C@@]34CCCN3C[C@H](F)C4)nc3c1COC1(CCCc4c(Cl)cc(O)cc41)C3)C2` (mixture of isomers) [Compound 43, 5-[5′-chloro-7′-hydroxy-2-[[rac-(2R,8S)-2-fluoro-1,2,3,5,6,7-hexahydropyrrolizin-8-yl]methoxy]spiro[5,8-dihydropyrano[4,3-d]pyrimidine-7,1′-tetralin]-4-yl]-N,N-dimethyl-4,6,7,8-tetrahydropyrazolo[1,5-a][1,4]diazepine-2-carboxamide] the pIC50 was 4.00 to 5.00. `C=C1CN2CCCC2(COc2nc3c(c(N4CCCn5nc(C(=O)N(C)C)c(Cl)c5C4)n2)CO[C@@]2(CCc4c(Cl)cccc42)C3)C1` (mixture of isomers) [Compound 54, 3-chloro-N,N-dimethyl-5-[rac-(7S)-4′-chloro-2-[(6-methylene-2,3,5,7-tetrahydro-1H-pyrrolizin-8-yl)methoxy]spiro[5,8-dihydropyrano[4,3-d]pyrimidine-7,1′-indane]-4-yl]-4,6,7,8-tetrahydropyrazolo[1,5-a][1,4]diazepine-2-carboxamide] gave a pIC50 of 4.00 to 5.00. For `Oc1ccc2c(c1)C1(CCC2)Cc2nc(OC[C@@]34CCCN3C[C@H](F)C4)nc(N3CCCCCC3)c2CO1` (single isomer, unassigned) [Compound 7], the pIC50 was less than 4.00. `Oc1ccc2c(c1)C1(CCC2)Cc2nc(OC[C@@]34CCCN3C[C@H](F)C4)nc(N3CCCCCC3)c2CO1` (single isomer, unassigned) [Compound 8] gave a pIC50 of less than 4.00. With `O=C1NC(=O)C2(CCCN(c3nc(OC[C@@]45CCCN4C[C@H](F)C5)nc4c3COC3(CCc5c(Cl)cccc53)C4)C2)N1` (single isomer, unassigned) [Compound 24A, (5*)-9-[(7*)-4′-chloro-2-[[(2R,8S)-2-fluoro-1,2,3,5,6,7-hexahydropyrrolizin-8-yl]methoxy]spiro[5,8-dihydropyrano[4,3-d]pyrimidine-7,1′-indane]-4-yl]-1,3,9-triazaspiro[4.5]decane-2,4-dione] the pIC50 was 4.00 to 5.00. In the case of `F[C@H]1CN2CCC[C@@]2(COc2nc3c(c(N4CCCCCC4)n2)COC2(CCc4c(Cl)cccc42)C3)C1` (stereo partly drawn) [Compound 1, 4′-(azepan-1-yl)-4-chloro-2′-(((2R,7aS)-2-fluorotetrahydro-1H-pyrrolizin-7a(5H)-yl)methoxy)-2,3,5′,8′-tetrahydrospiro[indene-1,7′-pyrano[4,3-d]pyrimidine]], the pIC50 was less than 4.00. `F[C@H]1CN2CCC[C@@]2(COc2nc3c(c(N4C[C@H]5CC[C@@H](C4)N5)n2)COC2(CCc4c(Cl)cccc42)C3)C1` (stereo partly drawn) [Compound 2, 4′-((1R,5S)-3,8-diazabicyclo[3.2.1]octan-3-yl)-4-chloro-2′-(((2R,7aS)-2-fluorotetrahydro-1H-pyrrolizin-7a(5H)-yl)methoxy)-2,3,5′,8′-tetrahydrospiro[indene-1,7′-pyrano[4,3-d]pyrimidine]] showed a pIC50 of 4.00 to 5.00. In the case of `OC1CCCN(c2nc(OC[C@@]34CCCN3C[C@H](F)C4)nc3c2COC2(CCCc4ccc(Br)cc42)C3)CC1` (stereo partly drawn) [Compound 4, 1-[7′-bromo-2-[[(2R,8S)-2-fluoro-1,2,3,5,6,7-hexahydropyrrolizin-8-yl]methoxy]spiro[5,8-dihydropyrano[4,3-d]pyrimidine-7,1′-tetralin]-4-yl]azepan-4-ol], the pIC50 was less than 4.00. `F[C@H]1CN2CCC[C@@]2(COc2nc3c(c(N4CCCCCC4)n2)COC2(CCCc4c(Br)cccc42)C3)C1` (stereo partly drawn) [Compound 5, 4-(azepan-1-yl)-5′-bromo-2-[[(2R,8S)-2-fluoro-1,2,3,5,6,7-hexahydropyrrolizin-8-yl]methoxy]spiro[5,8-dihydropyrano[4,3-d]pyrimidine-7,1′-tetralin]] showed a pIC50 of 4.00 to 5.00. Work on `F[C@H]1CN2CCC[C@@]2(COc2nc3c(c(N4C[C@H]5CC[C@@H](C4)N5)n2)COC2(CCCc4c(Br)cccc42)C3)C1` (stereo partly drawn) [Compound 10, 5′-bromo-4-(3,8-diazabicyclo[3.2.1]octan-3-yl)-2-[[(2R,8S)-2-fluoro-1,2,3,5,6,7-hexahydropyrrolizin-8-yl]methoxy]spiro[5,8-dihydropyrano[4,3-d]pyrimidine-7,1′-tetralin]] yielded a pIC50 of less than 4.00. With `Oc1ccc2c(c1)C1(CCC2)Cc2nc(OC[C@@]34CCCN3C[C@H](F)C4)nc(N3CCCC(O)CC3)c2CO1` (stereo partly drawn) [Compound 14, 2-[[(2S,8R)-2-fluoro-1,2,3,5,6,7-hexahydropyrrolizin-8-yl]methoxy]-4-(4-hydroxyazepan-1-yl)spiro[5,8-dihydropyrano[4,3-d]pyrimidine-7,4′-tetralin]-6′-ol] the pIC50 was less than 4.00. Work on `OC1CCCN(c2nc(OC[C@@]34CCCN3C[C@H](F)C4)nc3c2COC2(CCCc4c(Cl)cccc42)C3)CC1` (stereo partly drawn) [Compound 15, 1-[5′-chloro-2-[[(2R,8S)-2-fluoro-1,2,3,5,6,7-hexahydropyrrolizin-8-yl]methoxy]spiro[5,8-dihydropyrano[4,3-d]pyrimidine-7,1′-tetralin]-4-yl]azepan-4-ol] yielded a pIC50 of less than 4.00. `N#CC1CCCN(c2nc(OC[C@@]34CCCN3C[C@H](F)C4)nc3c2COC2(CCc4c(Cl)cccc42)C3)CC1` (stereo partly drawn) [Compound 16, 1-(4-chloro-2′-(((2R,7aS)-2-fluorotetrahydro-1H-pyrrolizin-7a(5H)-yl)methoxy)-2,3,5′,8′-tetrahydrospiro[indene-1,7′-pyrano[4,3-d]pyrimidin]-4′-yl)azepane-4-carbonitrile] was tested, and the pIC50 was less than 4.00. `OC1CCCN(c2nc(OC[C@@]34CCCN3C[C@H](F)C4)nc3c2COC2(CCCc4ccc(Cl)cc42)C3)CC1` (stereo partly drawn) [Compound 17, 1-(7-chloro-2′-(((2R,7aS)-2-fluorotetrahydro-1H-pyrrolizin-7a(5H)-yl)methoxy)-3,4,5′,8′-tetrahydro-2H-spiro[naphthalene-1,7′-pyrano[4,3-d]pyrimidin]-4′-yl)azepan-4-ol] gave a pIC50 of 4.00 to 5.00. `F[C@H]1CN2CCC[C@@]2(COc2nc3c(c(N4CCC=CCC4)n2)COC2(CCc4c(Cl)cccc42)C3)C1` (stereo partly drawn) [Compound 18, 4′-chloro-2-[[(2R,8S)-2-fluoro-1,2,3,5,6,7-hexahydropyrrolizin-8-yl]methoxy]-4-(2,3,6,7-tetrahydroazepin-1-yl)spiro[5,8-dihydropyrano[4,3-d]pyrimidine-7,1′-indane]] showed a pIC50 of 4.00 to 5.00. For `CN(C)C(=O)c1cc2n(n1)CCCN(c1nc(OC[C@@]34CCCN3C[C@H](F)C4)nc3c1CO[C@]1(CCc4c(Cl)cccc41)C3)C2` [Compound 27B, 5-[(7R)-4′-chloro-2-[[(2R,8S)-2-fluoro-1,2,3,5,6,7-hexahydropyrrolizin-8-yl]methoxy]spiro[5,8-dihydropyrano[4,3-d]pyrimidine-7,1′-indane]-4-yl]-N,N-dimethyl-4,6,7,8-tetrahydropyrazolo[1,5-a][1,4]diazepine-2-carboxamide], the pIC50 was 4.00 to 5.00. `CN1Cc2c(nc(OC[C@@]34CCCN3C[C@H](F)C4)nc2N2CCCCCC2)C[C@]12CCc1c(Cl)cccc12` [Compound 28A, (7S)-4-(azepan-1-yl)-4′-chloro-2-[[(2R,8S)-2-fluoro-1,2,3,5,6,7-hexahydropyrrolizin-8-yl]methoxy]-6-methyl-spiro[5,8-dihydropyrido[4,3-d]pyrimidine-7,1′-indane]] showed a pIC50 of less than 4.00. `N#CNC1CCCN(c2nc(OC[C@@]34CCCN3C[C@H](F)C4)nc3c2COC2(CCc4c(Cl)cccc42)C3)C1` (stereo partly drawn) [Compound 29, [1-[4′-chloro-2-[[(2R,8S)-2-fluoro-1,2,3,5,6,7-hexahydropyrrolizin-8-yl]methoxy]spiro[5,8-dihydropyrano[4,3-d]pyrimidine-7,1′-indane]-4-yl]-3-piperidyl]cyanamide] gave a pIC50 of 4.00 to 5.00. `CN(C)C(=O)c1cc2n(n1)CCCN(c1nc(OC[C@@]34CCCN3C[C@H](F)C4)nc3c1CN(C)C1(CCCc4ccc(O)cc41)C3)C2` (stereo partly drawn) [Compound 39, 5-[7′-hydroxy-6-methyl-2-[[(2R,8S)-2-fluoro-1,2,3,5,6,7-hexahydropyrrolizin-8-yl]methoxy]spiro[5,8-dihydropyrido[4,3-d]pyrimidine-7,1′-tetralin]-4-yl]-N,N-dimethyl-4,6,7,8-tetrahydropyrazolo[1,5-a][1,4]diazepine-2-carboxamide] gave a pIC50 of less than 4.00. `CN(C)C(=O)c1cc2n(n1)CCCN(c1nc(OC[C@@]34CCCN3C[C@H](F)C4)nc3c1CN(C)[C@@]1(CCCc4ccc(O)cc41)C3)C2` [Compound 39A, 5-[(7S)-2-[[(2R,8S)-2-fluoro-1,2,3,5,6,7-hexahydropyrrolizin-8-yl]methoxy]-7′-hydroxy-6-methyl-spiro[5,8-dihydropyrido[4,3-d]pyrimidine-7,1′-tetralin]-4-yl]-N,N-dimethyl-4,6,7,8-tetrahydropyrazolo[1,5-a][1,4]diazepine-2-carboxamide] was tested, and the pIC50 was 4.00 to 5.00. `Cc1c(C(=O)N(C)C)nn2c1CN(c1nc(OC[C@@]34CCCN3C[C@H](F)C4)nc3c1CO[C@@]1(CCc4c(Cl)cccc41)C3)CCC2` [Compound 42, 5-[(7S)-4′-chloro-2-[[(2R,8S)-2-fluoro-1,2,3,5,6,7-hexahydropyrrolizin-8-yl]methoxy]spiro[5,8-dihydropyrano[4,3-d]pyrimidine-7,1′-indane]-4-yl]-N,N,3-trimethyl-4,6,7,8-tetrahydropyrazolo[1,5-a][1,4]diazepine-2-carboxamide] was tested, and the pIC50 was 4.00 to 5.00. `O=C(c1nn2c(c1Cl)CN(c1nc(OC[C@@]34CCCN3C[C@H](F)C4)nc3c1CO[C@@]1(CCc4c(Cl)cccc41)C3)CCC2)N1CCOCC1` [Compound 45, [3-chloro-5-[(7S)-4′-chloro-2-[[(2R,8S)-2-fluoro-1,2,3,5,6,7-hexahydropyrrolizin-8-yl]methoxy]spiro[5,8-dihydropyrano[4,3-d]pyrimidine-7,1′-indane]-4-yl]-4,6,7,8-tetrahydropyrazolo[1,5-a][1,4]diazepin-2-yl]-morpholino-methanone] showed a pIC50 of 4.00 to 5.00.
